“Also recorded” adds a separate entry of the source. Read-outs that look alike come from different tables or passages of the source.
Experiments:
TBEV-RVP = format: cell-based, tick-borne encephalitis virus
Sendai Virus (SeV) = test: Sendai Virus infection and IFN-β production in CHME3 cells; format: cell-based; conditions: SeV MOI 1 and 10, DGP 1 μM, NH4Cl 20 mM
Method: The Flaviviridae family of viruses encode a glycoprotein that is necessary to achieve fusion at the endosomal/lysosomal membranes, the step that releases viral components into the cytoplasm. […] Instead, SeV fuses at the plasma membrane. To this end, IFN-β production and viral infection were measured in CHME3 cells infected with SeV at an MOI 1 and 10 in the presence of DGP (1 μM) or 20 mM NH4Cl.
(§1) To detect viral copies of ZIKV and Sendai Virus (SeV) by qRT-PCR, cells were seeded in 24-well plates, with or without DGP treatment, and infected with the virus at the indicated MOI for 48 h. After the incubation period, total RNA from HT1080, VERO, and CHME3 cells was isolated and purified using Trizol (Invitrogen). For detection of ZIKV viral load in brain and spleen, 3 mice were sacrificed at 6 days post-infection and total RNA was extracted from the brain and spleen. For cDNA synthesis, 1 ng of total RNA was reverse transcribed. The reaction mixture included 1 mM of deoxyribonucleotide phosphates (dNTPs), 2 nM of the specific reverse primer of ZIKV or SeV, 1× M-MULV buffer, 10 U M-MuLV RT (BioLabs), and 2 U of RNase Inhibitor. The reaction mixture was incubated for 1 hour at 42° C. followed by 20 min at 65° C. to inactivate the enzyme. For actin detection, Oligo-dT was used to reverse transcribe total RNA.
ZIKV RNA levels were measured using real-time PCR. HT1080 and VERO cells were challenged by ZIKV MR766 at an MOI of 1 in the presence of DGP. At 48 hours post-challenge, cells were lysed and total RNA was extracted using trizol. Total RNA was used to determine the levels of ZIKV RNA by real-time PCR using specific primers against ZIKA. qRT-PCR was carried out using SYBR green in a 20-μl final volume using a MASTERCYCLER proS machine. The primers used to detect ZIKV were: SEQ ID NO. 1: 5′-TT […]-3′-Forward (Genome Position 941-964) and SEQ ID NO. 2: 5′-[…]-3′-Reverse (Genome position 1123-1103) (AY632535.2). For the detection of SeV, the following primers were used: SEQ ID NO. 3: 5′-[…]-3′-Forward (Genome position 210-233) and SEQ ID NO. 4: 5′-[…]-3′-Reverse (Genome position 332-307) (M30202. Genome position 210-332) (Wagner, A. M. et al. 2003, “Detection of sendai virus and pneumonia virus of mice by use of fluorogenic nuclease reverse transcriptase polymerase chain reaction analysis.” Comp Med 53(2): 173-177). For the detection of IFN-β the following primers were used: SEQ ID NO. 5: Forward 5-[…]-3′ (Genome position 644-668) and SEQ ID Na 6: Reverse 5′-[…]-3′ (Genome position 718-697) (NM_002176.2) and for actin detection: SEQ ID NO. 7: 5′-[…]-′3-Forward and SEQ ID NO. 8: 5′-[…]′3-Reverse. ZIKA viral RNA levels were normalized to actin (upper panels). […]

ZIKV MR766 = test: qRT-PCR quantification of ZIKV RNA in cells; format: cell-based, Zika virus; conditions: VERO and HT1080 cells; MOI 1; 48 hours; increasing concentrations
Method: To corroborate these findings, quantitative real-time PCR (qRT-PCR) was used to quantify viral RNA using specific primers for the ZIKV genome (FIG. 3A). VERO and HT1080 cells were challenged with ZIKV at an MOI of 1 in the presence of DGP at the indicated concentrations. At 48 hours post-infection, ZIKV RNA was quantified by qRT-PCR, and normalized to Actin. […] Inhibition of viral RNA production correlated with the inhibition of viral infection (compare FIG. 3A with FIG. 3B).
as §1, with “For actin detection, Oligo-dT was used to reverse transcribe total RNA.” left out
ZIKV RNA levels were measured using real-time PCR. […]

ZIKV-RVP = format: cell-based, Zika virus; conditions: VERO, HT1080, CHME3 cells; MOI 0.5; 48 hours
ZIKV = ZIKV viral load in brain and spleen of challenged mice (qRT-PCR); format: in vivo, mouse; conditions: 1 mg/kg; six days post-challenge
Method: The effect of DGP on viral replication in the brain and spleen was investigated in ZIKV-challenged mice (FIG. 13). To this end, viral loads were determined by qRT-PCR using specific primers against the ZIKV genome six days post-challenge.
as §1

[1] = test system: type I IFN response (IFN-β); test: Type I IFN response (IFN-β induction, qRT-PCR) in ZIKV-challenged CHME3 cells; format: cell-based, human; conditions: ZIKV MR766 MOI 1, 0.1 μM and 1 μM, 48 hours
Description: ZIKV infection activates the type I IFN response via IFN-stimulated genes that are activated by the host after recognition of viral components. If ZIKV is inhibited at a pre-fusion step, viral nucleic acids and proteins will not be exposed to the host cytosol; thus the type I IFN response will not be activated. To test whether DGP treatment prevents activation of the type I IFN response, CHME3 cells we challenged using ZIKV MR766 at an MOI of 1 in the presence of different DGP concentrations. At 48 hours post-challenge, the type I IFN response was assessed using qRT-PCR to measure IFN-β induction (FIG. 5).
ZIKV RNA levels were measured using real-time PCR. HT1080 and VERO cells were challenged by ZIKV MR766 at an MOI of 1 in the presence of DGP. At 48 hours post-challenge, cells were lysed and total RNA was extracted using trizol. Total RNA was used to determine the levels of ZIKV RNA by real-time PCR using specific primers against ZIKA. qRT-PCR was carried out using SYBR green in a 20-μl final volume using a MASTERCYCLER proS machine. The primers used to detect ZIKV were: SEQ ID NO. 1: 5′-TT […]-3′-Forward (Genome Position 941-964) and SEQ ID NO. 2: 5′-[…]-3′-Reverse (Genome position 1123-1103) (AY632535.2). For the detection of SeV, the following primers were used: SEQ ID NO. 3: 5′-[…]-3′-Forward (Genome position 210-233) and SEQ ID NO. […]

EBV RVP = format: cell-based, Ebola virus
ZIKV strain MR766 [2] = test: ZIKV-induced mortality in Ifnar1−/− mice; format: in vivo, mouse (C57BL/6 Ifnar1−/−)
WNV-RVP = format: cell-based, West Nile virus; conditions: VERO cells; DGP 1 μM; NH4Cl 20 mM
ZIKV strain MR766 [3] = test: ZIKV strain MR766 infection, 4G2 antibody flow cytometry; conditions: for IC50: Zika virus

Question: What does the source list for COc1cc2c(OC3OC(C)C(O)C(O)C3O)c3c(c(-c4ccc5c(c4)OCO5)c2cc1OC)C(=O)OC3 (stereo not drawn) [DGP, 6-deoxyglucose-diphyllin]?
Answer: TBEV RVP infection (TBEV-RVP): almost undetectable; IFN-β production in SeV-infected cells (Sendai Virus (SeV)): did not inhibit; also recorded: increased induction; SeV infection / viral replication (Sendai Virus (SeV)): does not inhibit; also recorded: increased viral replication; synthesis of viral RNA (normalized to Actin) (ZIKV MR766): completely inhibited; concentration at which ZIKV-RVP infection was substantially inhibited (ZIKV-RVP): 0.25 to 0.50 µM; viral replication in the brain (ZIKV): completely inhibited; viral replication in the spleen (ZIKV): low levels of viral replication were detected; activation of the type I IFN response (IFN-β induction) [1]: substantially decreased and/or prevented; EBV RVP infection (EBV RVP): almost undetectable; percent survival (ZIKV strain MR766 [2]; 0.1 mg/kg and 0.2 mg/kg dose (FIG. 8A)): improved; body weight of surviving mice (ZIKV strain MR766 [2]; 0.2 mg/kg and 1 mg/kg (FIGS. 8B and 8D)): able to regain lost body weight; survival (ZIKV strain MR766 [2]; 1 mg/kg (FIG. 8C)): 100%; time at which group succumbed to viral infection (ZIKV strain MR766 [2]; ZIKV + 0.1 mg/kg, footpad co-injection): 10 days post-challenge; appearance of symptoms (ZIKV strain MR766 [2]; ZIKV + 0.2 mg/kg, compared with ZIKV group): delay in the appearance of symptoms; survival (ZIKV strain MR766 [2]; ZIKV + 0.2 mg/kg, footpad co-injection): some mice survived until day 14; disease symptoms (ZIKV strain MR766 [2]; ZIKV + 1 mg/kg): did not show any obvious disease symptoms; body weight (ZIKV strain MR766 [2]; ZIKV + 1 mg/kg compared to PBS + 1 mg/kg of DGP): lower body weights; mice surviving for the length of the experiment (ZIKV strain MR766 [2]; ZIKV + 1 mg/kg, 15 post-challenge days, 6 mice/group): all six mice; WNV RVP infection (WNV-RVP): almost undetectable; percentage of 4G2-positive cells (ZIKV strain MR766 [3]; CHME3 cells, MOI 1, DGP 0.1 and 1 μM, NH4Cl 20 mM, 48 hours): substantial decrease; potency of DGP relative to diphyllin (ZIKV strain MR766 [3]; HT1080 and CHME3 cells): 3-5 fold; concentration giving substantial inhibition of ZIKV infection (ZIKV strain MR766 [3]; VERO, HT1080, CHME3 cells, MOI 1, 48 hours): 0.25 to 0.50 µM; IC50 (ZIKV strain MR766 [3]; HT-1080, read-out: IC50, ZIKV infection): 20 nM; IC50 (ZIKV strain MR766 [3]; read-out: IC50, ZIKV infection): 40 nM
